pIC50: −log10 of the molar value.
How the values were obtained:
TRKC-G623R = molecular target: T1, TRKC-G623R (Homo sapiens, UniProt Q16288, G623R); assay: TRK kinase mutant inhibition (HTRF), TRKC-G623R; type: biochemical
T1 construct: purchased Carna Biosciences

TRKC-G696A = molecular target: T2, TRKC-G696A (Homo sapiens, UniProt Q16288, G696A); assay: TRK kinase mutant inhibition (HTRF), TRKC-G696A; type: biochemical
T2 construct: purchased Carna Biosciences

Human NSCLC H2228 [1] = assay: Antitumor activity on nude mouse xenograft tumor model (Test Example 4); type: in vivo, nude mice (BALB/c)
Method: The efficacy of the compounds of the invention was evaluated by a standard murine model of the transplanted tumor. Human NSCLC H2228 was cultured, collected, and inoculated subcutaneously to 5-6 weeks old female nude mice (BALB/c, Shanghai Ling Chang Biotech, Ltd.). When the tumor volume reached 100-150 mm^3, the animals were randomly divided into a solvent control group ([…] in water) and a compound group (6 animals per group). Animals were subsequently gavaged with the compounds of the examples (corresponding dose, dissolved in […] in water), starting anywhere from 0 to 7 days after tumor cell inoculation, and were performed twice daily in the experiment.
The experimental index is to examine the influence of the compound of the embodiment on the growth of the tumor, and the specific index is […].
(§1) Tumor diameters were measured twice weekly with a vernier caliper and tumor volume (V) was calculated as:
(§2) V=½×a×b^2 wherein a and b represent length and width, respectively.
(§3) T/C(%)=(T−T0)/(C−C0)×100 where T, C is the tumor volume at the end of the experiment; T0, C0 are tumor volumes at the beginning of the experiment.
(§4) Partial tumor regression (PR) is defined if the tumor shrinks from the initial volume, i.e., T<T0 or C<C0; if the tumor completely disappears, it is defined as complete tumor regression (CR).
(§5) Comparison between the two groups of tumor volumes was tested using a two-tailed Student's t test, with P<0.05 defined as statistically significant differences.
BID below refers to twice daily dosing.

TRKA-F589L = molecular target: T3, TRKA-F589L (Homo sapiens, UniProt P04629, F589L); assay: TRK kinase mutant inhibition (HTRF), TRKA-F589L; type: biochemical
T3 construct: purchased Carna Biosciences
T3 sequence (P04629 33-796 F589L): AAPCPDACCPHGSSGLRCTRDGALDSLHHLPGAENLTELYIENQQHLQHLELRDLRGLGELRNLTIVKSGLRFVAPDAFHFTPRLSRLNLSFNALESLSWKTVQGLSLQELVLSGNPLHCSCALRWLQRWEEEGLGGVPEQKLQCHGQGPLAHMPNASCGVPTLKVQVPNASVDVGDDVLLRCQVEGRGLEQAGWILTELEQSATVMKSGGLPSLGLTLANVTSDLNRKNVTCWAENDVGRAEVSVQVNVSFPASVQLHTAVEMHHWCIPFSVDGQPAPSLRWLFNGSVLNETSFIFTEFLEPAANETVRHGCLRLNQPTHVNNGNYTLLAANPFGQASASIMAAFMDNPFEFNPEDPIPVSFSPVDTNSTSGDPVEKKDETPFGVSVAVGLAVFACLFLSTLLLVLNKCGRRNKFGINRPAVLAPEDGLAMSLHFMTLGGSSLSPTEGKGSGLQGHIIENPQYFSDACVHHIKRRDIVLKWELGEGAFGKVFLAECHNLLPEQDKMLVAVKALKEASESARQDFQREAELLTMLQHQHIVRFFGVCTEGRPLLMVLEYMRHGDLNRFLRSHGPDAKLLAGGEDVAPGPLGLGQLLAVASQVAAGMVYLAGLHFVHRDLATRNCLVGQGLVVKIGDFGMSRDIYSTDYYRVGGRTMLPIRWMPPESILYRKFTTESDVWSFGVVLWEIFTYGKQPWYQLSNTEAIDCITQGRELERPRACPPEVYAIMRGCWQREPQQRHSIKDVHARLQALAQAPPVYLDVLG

TRKA = molecular target: T4, TRKA (Homo sapiens, UniProt P04629); assay: In vitro biochemical HTRF KinEASE kinase inhibition, TRKA; conditions: wild-type kinase, final ATP 3.727 μmol/L; read-out: TRKA IC50
T4 construct: purchased Carna Biosciences 08-186
T4 sequence (P04629 33-796): as the sequence (P04629 33-796 F589L) above, with L557F counted along it

TRKC = molecular target: T5, TRKC (Homo sapiens, UniProt Q16288); assay: In vitro biochemical HTRF KinEASE kinase inhibition, TRKC; conditions: wild-type kinase, final ATP 2.526 μmol/L
T5 construct: purchased Carna Biosciences 08-197
T5 sequence (Q16288 32-825 isoform Q16288-3 limits assumed): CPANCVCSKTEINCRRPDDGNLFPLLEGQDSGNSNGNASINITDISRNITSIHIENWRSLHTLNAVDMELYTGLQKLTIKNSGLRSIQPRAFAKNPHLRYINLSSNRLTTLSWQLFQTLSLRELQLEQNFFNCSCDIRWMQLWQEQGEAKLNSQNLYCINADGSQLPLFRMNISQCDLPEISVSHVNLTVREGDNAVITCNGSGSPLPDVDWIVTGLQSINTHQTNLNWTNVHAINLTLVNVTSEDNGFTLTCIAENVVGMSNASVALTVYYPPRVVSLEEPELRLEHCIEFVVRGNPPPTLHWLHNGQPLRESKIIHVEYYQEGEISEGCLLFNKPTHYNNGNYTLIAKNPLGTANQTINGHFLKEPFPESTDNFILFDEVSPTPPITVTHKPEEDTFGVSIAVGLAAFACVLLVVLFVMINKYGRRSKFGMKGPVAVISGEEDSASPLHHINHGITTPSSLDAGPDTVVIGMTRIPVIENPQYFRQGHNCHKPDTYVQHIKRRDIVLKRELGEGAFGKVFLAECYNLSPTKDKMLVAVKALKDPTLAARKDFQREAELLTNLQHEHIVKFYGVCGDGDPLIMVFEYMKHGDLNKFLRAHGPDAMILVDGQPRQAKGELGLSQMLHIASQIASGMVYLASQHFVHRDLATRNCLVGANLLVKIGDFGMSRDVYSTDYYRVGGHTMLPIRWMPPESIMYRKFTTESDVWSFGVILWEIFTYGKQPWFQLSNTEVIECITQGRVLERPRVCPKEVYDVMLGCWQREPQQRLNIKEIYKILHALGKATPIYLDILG

TRKA-G595R = molecular target: T6, TRKA-G595R (Homo sapiens, UniProt P04629, G595R); assay: TRK kinase mutant inhibition (HTRF), TRKA-G595R; type: biochemical
T6 construct: purchased Carna Biosciences
T6 sequence (P04629 33-796 G595R): as the sequence (P04629 33-796 F589L) above, with L557F, G563R counted along it

TRKB = molecular target: T7, TRKB (Homo sapiens, UniProt Q16620); assay: In vitro biochemical HTRF KinEASE kinase inhibition, TRKB; conditions: wild-type kinase, final ATP 2.56 μmol/L
T7 construct: purchased Carna Biosciences 08-187
T7 sequence (Q16620 32-822): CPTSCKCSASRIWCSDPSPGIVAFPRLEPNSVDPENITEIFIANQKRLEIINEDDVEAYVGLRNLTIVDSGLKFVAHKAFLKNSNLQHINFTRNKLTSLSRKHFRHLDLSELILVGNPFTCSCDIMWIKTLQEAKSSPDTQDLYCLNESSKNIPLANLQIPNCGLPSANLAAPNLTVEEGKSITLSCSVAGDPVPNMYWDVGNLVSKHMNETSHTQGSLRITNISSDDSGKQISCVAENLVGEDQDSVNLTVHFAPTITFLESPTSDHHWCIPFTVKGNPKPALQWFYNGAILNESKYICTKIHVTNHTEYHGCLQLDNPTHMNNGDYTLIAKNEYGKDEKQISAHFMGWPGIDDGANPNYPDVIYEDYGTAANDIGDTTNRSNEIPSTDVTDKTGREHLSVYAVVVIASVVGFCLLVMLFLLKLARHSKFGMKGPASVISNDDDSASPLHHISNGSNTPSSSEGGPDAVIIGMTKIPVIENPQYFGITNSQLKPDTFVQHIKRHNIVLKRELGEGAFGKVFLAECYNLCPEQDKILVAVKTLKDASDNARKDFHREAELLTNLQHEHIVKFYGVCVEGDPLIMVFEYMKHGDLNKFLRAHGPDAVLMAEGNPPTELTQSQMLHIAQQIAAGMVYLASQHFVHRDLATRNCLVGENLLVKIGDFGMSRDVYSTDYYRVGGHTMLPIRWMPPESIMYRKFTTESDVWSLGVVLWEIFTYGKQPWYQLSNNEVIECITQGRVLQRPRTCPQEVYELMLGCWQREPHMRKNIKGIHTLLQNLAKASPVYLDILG
Procedure, shortened: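 Human TRKA or TRKB was preincubated 5 min at 25° C with compound, then reacted 30 min at 37° C with 0.2 μmol/L biotinylated TK substrate and ATP (final 3.727 μmol/L for TRKA, 2.56 μmol/L for TRKB) in buffer containing DTT, MnCl2 and MgCl2. HTRF 665/620 nm ratio read after 1 h detection; IC50 from variable-slope fit.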

[2] = Drug metabolism study in rats, intravenous administration; conditions: rat
TRKA-G667C = molecular target: T8, TRKA-G667C (Homo sapiens, UniProt P04629, G667C); assay: TRK kinase mutant inhibition (HTRF), TRKA-G667C; type: biochemical
T8 construct: purchased Carna Biosciences
T8 sequence (P04629 33-796 G667C): as the sequence (P04629 33-796 F589L) above, with L557F, G635C counted along it

[3] = Drug metabolism study in rats, oral administration; conditions: rat
Human NSCLC H2228 [4] = assay: Antitumor activity on nude mouse xenograft tumor model (Test Example 5); type: in vivo, nude mice (BALB/c); conditions: for Partially regression: D14, tumors regressed/animals per group
Method: The efficacy of the compounds of the invention was assessed by a standard murine model of transplanted tumors. Human NSCLC H2228 was cultured, collected, and inoculated subcutaneously to 5-6 weeks old female nude mice (BALB/c, Shanghai Ling Chang Biotech, Ltd.). When the tumor volume reached 100-150 mm3, the animals were randomly divided into a solvent control group (70% PEG-400 in water) and a compound group (6 animals per group).
Animals were subsequently gavaged with the compounds of the examples (corresponding doses, dissolved in 70% PEG-400 in water), starting anywhere from 0 to 13 days after tumor cell inoculation, and were performed once or twice daily in the experiment.
The experimental index is to examine the influence of the compound of the embodiment on the growth of the tumor, and the specific index is T/C % or tumor inhibition rate TGI (%).
as §1, §2, §3
Tumor inhibition rate (TGI) (%) 100−T/C (%).
When tumor regression occurred, Tumor inhibition rate (TGI) (%) 100−(T−T0)/T0×100
as §4, §5
BID below indicates twice daily dosing and QD indicates once daily dosing.

[5] = 50 mg/kg BID D0-7, D14, tumors regressed/animals per group

T2 sequence (Q16288 32-839 G696A): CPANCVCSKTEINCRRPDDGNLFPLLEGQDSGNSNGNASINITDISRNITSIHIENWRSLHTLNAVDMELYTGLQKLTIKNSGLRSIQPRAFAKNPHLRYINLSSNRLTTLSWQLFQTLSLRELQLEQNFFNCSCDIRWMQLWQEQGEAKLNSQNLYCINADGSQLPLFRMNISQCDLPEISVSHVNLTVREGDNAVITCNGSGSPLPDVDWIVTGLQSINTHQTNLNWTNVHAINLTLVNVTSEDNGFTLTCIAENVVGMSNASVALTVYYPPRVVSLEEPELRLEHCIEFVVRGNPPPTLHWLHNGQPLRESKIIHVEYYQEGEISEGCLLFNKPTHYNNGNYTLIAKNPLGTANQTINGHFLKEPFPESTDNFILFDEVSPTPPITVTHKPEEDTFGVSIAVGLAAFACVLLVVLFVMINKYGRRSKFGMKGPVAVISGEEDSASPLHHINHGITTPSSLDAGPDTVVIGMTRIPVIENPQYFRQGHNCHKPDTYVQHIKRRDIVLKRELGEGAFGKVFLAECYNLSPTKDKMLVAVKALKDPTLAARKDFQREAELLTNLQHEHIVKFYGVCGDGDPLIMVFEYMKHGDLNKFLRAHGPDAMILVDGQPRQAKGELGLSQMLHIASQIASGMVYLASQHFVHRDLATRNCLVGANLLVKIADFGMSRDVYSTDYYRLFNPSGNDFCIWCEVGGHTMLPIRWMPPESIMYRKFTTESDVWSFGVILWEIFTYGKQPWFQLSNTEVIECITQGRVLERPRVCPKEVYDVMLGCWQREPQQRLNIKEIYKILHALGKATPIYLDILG
T1 sequence (Q16288 32-839 G623R): as the sequence (Q16288 32-839 G696A) above, with G592R, A665G counted along it

For `C[C@@H](Nc1ccn2ncc(-c3cnn(CCO)c3)c2n1)c1cc(F)ccc1OCC(F)F` [Compound 5, (R)-2-(4-(5-((1-(2-(2,2-difluoroethoxy)-5-fluorophenyl)ethyl)amino)pyrazolo [1,5-a]pyrimidin-3-yl)-1H-pyrazol-1-yl) ethanol], the pIC50 (TRKC-G623R) was 9.21, the pIC50 (TRKC-G696A) was 9.00 and the Partially regression (Human NSCLC H2228 [1]; [5]) was 2/6. The complete regression (Human NSCLC H2228 [1]; [5]) was 3/6, the “Tumor growth inhibition value D14” value (Human NSCLC H2228 [1]; 50 mg/kg BID gavage D0-7, dosing stopped from D8, read at D14, 50 mg/kg) was 155% and the “Tumor growth inhibition value D14” value (Human NSCLC H2228 [1]; 50 mg/kg BID gavage D0-7, dosing stopped from D8, read at D14, listed as compound 5, 50 mg/kg) was 155%. The “tumor completely regressed D7” value (Human NSCLC H2228 [1]; 50 mg/kg BIDx8, D7, tumors regressed/animals per group) was 4/6, the “tumor inhibition rate D7” value (Human NSCLC H2228 [1]; 50 mg/kg BIDx8, read at D7) was 182% and the pIC50 (TRKA-F589L) was 9.54. The pIC50 (TRKA) was 8.44, the pIC50 (TRKC) was 7.95 and the pIC50 (TRKA-G595R) was 9.06. The pIC50 (TRKB) was 8.41, the Vd ([2]; in vivo, iv, 1 mg/kg) was 40 L/kg and the clearance ([2]; in vivo, iv, 1 mg/kg) was 83.3 mL/min/kg. The Cmax ([2]; intravenous injection 1 mg/kg) was 104.1 ng/mL, the T1/2 ([2]; intravenous injection 1 mg/kg) was 5.7 h and the AUC(0-t) ([2]; plasma, iv, 1 mg/kg) was 194 ng·h/mL. For the same molecule, the MRT last ([2]; plasma, iv, 1 mg/kg) was 3.89 h, the pIC50 (TRKA-G667C) was 9.02 and the bioavailability ([3]; in vivo, po, 5 mg/kg) was 49.3%. It also gave a CL ([3]; oral 5 mg/kg) of 158 mL/min/kg, a Cmax ([3]; oral 5 mg/kg) of 217.7 ng/mL and a T1/2 ([3]; oral 5 mg/kg) of 5.7 h. For the same molecule, the Tmax ([3]; oral 5 mg/kg) was 0.25 h, the Vz ([3]; oral 5 mg/kg) was 79.26 L/kg and the AUC(0-t) ([3]; plasma, po, 5 mg/kg) was 479 ng·h/mL. The MRT last ([3]; plasma, po, 5 mg/kg) was 3.6 h.

Molecule `C[C@@H](Nc1ccn2ncc(-c3cn[nH]c3)c2n1)c1cc(F)ccc1OCC(F)(F)F` [Compound b8-30, (R)-N-(1-(5-fluoro-2-(2,2,2-trifluoroethoxy)phenyl)ethyl)-3-(1H-pyrazol-4-yl) pyrazolo [1,5-a] pyrimidin-5-amine] has a pIC50 (TRKC-G623R) of 9.14, a pIC50 (TRKC-G696A) of 8.89 and a pIC50 (TRKA-F589L) of 9.36. For the same molecule, the Partially regression (Human NSCLC H2228 [4]; 25 mg/kg BID D0-13 (50 mg/kg from D8)) was 6/6, the “Tumor growth inhibition value/ D14” value (Human NSCLC H2228 [4]; 25 mg/kg BID D0-13 (dose increased from D8 to 50 mg/kg), read at D14) was 127% and the “Tumor growth inhibition value/ D14” value (Human NSCLC H2228 [4]; 25 mg/kg BID D0-13 (dose increased from D8 to 50 mg/kg), read at D14, listed as compound b8-30) was 127%. The “tumor inhibition rate D7” value (Human NSCLC H2228 [4]; 25 mg/kg BID, read at D7) was 95%, the Partially regression (Human NSCLC H2228 [4]; 50 mg/kg QD D0-10 (100 mg/kg from D8)) was 3/6 and the “Tumor growth inhibition value/ D14” value (Human NSCLC H2228 [4]; 50 mg/kg QD D0-10 (dose raised from D8 to 100 mg/kg), read at D14) was 110%. The “Tumor growth inhibition value/ D14” value (Human NSCLC H2228 [4]; 50 mg/kg QD D0-10 (dose raised from D8 to 100 mg/kg), read at D14, listed as compound b8-30) was 110%, the “tumor suppression D7” value (Human NSCLC H2228 [4]; 50 mg/kg QD, read at D7) was 96% and the pIC50 (TRKA) was 8.55. It also gave a pIC50 (TRKC) of 8.41, a pIC50 (TRKA-G595R) of 9.12 and a pIC50 (TRKB) of 8.49. It also gave an AUC(0-t) ([2]; plasma, iv, 1 mg/kg) of 518 ng·h/mL, a Cmax ([2]; plasma, iv, 1 mg/kg) of 174 ng/mL and an MRT last ([2]; plasma, iv, 1 mg/kg) of 4.2 h. For the same molecule, the Vd ([2]; plasma, iv, 1 mg/kg) was 12.7 L/kg, the clearance ([2]; plasma, iv, 1 mg/kg) was 30.3 mL/min/kg and the half-life ([2]; plasma, iv, 1 mg/kg) was 4.95 h. The pIC50 (TRKA-G667C) was 9.12, the CL ([3]; oral 5 mg/kg) was 57.7 mL/min/kg and the Vz ([3]; oral 5 mg/kg) was 19.23 L/kg. It also gave an AUC(0-t) ([3]; plasma, po, 5 mg/kg) of 1460 ng·h/mL, a Cmax ([3]; plasma, po, 5 mg/kg) of 283 ng/mL and an MRT last ([3]; plasma, po, 5 mg/kg) of 4.27 h. For the same molecule, the Tmax ([3]; plasma, po, 5 mg/kg) was 2 h, the bioavailability ([3]; plasma, po, 5 mg/kg) was 56.2% and the half-life ([3]; plasma, po, 5 mg/kg) was 4 h.

Reference: patent US20220177477A1 (Central China Normal University, priority 2019, published 2022)
